Reference: PMC6297782, “DNA-Mediated Interferon Signature Induction by SLE Serum Occurs in Monocytes Through Two Pathways: A Mechanism to Inhibit Both Pathways” (Frontiers in Immunology, 2018)

Experiments:
[1] = system: primary human monocytes; experiment: DWEYS internalization into monocytes (ImageStream); type: cell-based; conditions: 20 min
Protocol: Primary human monocytes were incubated for 20 min with biotin-tagged DWEYS peptide alone or with serum from SLE patients or healthy controls. Following incubation, cells were thoroughly washed and stained with anti-CD14 antibody (R&D Technologies, North Kingston, RI, USA) for 40 min at 4°C. Cells were then washed, fixed using 4% PFA and permeabilized using 1% Triton-X100, followed by incubation with labeled streptavidin for 40 min. Cell nuclei were counterstained with DAPI and cells were imaged using an ImageStream device (Amnis, Burlington, MA, USA).
Figure 3 DWEYS displaces DNA from immune complexes and inhibits DNA internalization into monocytes. (A) Primary human monocytes were incubated with labeled heat aggregated human lgG (hlgG, red) and either DWEYS or a blocking anti-FcRIIa antibody for 20 min. Cells were counterstained with DAPI and imaged using a laser scanning confocal microscope. (B) The graphs indicates adjusted fluorescence intensity for three experiments. (C) SLE serum was incubated with Syto 60 labeled dsDNA (5 μM), followed by DWEYS or control peptide (100 μM) for 30 min each. lgG was then isolated on protein G beads and Syto60 levels from protein G beads were quantified using LICOR scanner. OD was normalized to a standard labeled and filtered DNA. […] (D,E) Primary human monocytes were incubated with biotinylated DWEYS alone or biotinylated DWEYS and SLE serum from patients with or without anti ds DNA antibodies for 20 min. Cells were then stained for CD 14 as a membrane marker and intracellular DWEYS was tagged using fluorochrome labeled streptavidin. Intracellular DWEYS was quantified using lmageStream instrument: DWEYS fluorescence levels by flow cytometry (D) and representative ImageStream cell images (E). One representative experiment of three with similar results is shown. ^*p < 0.05; ns, not significant.

[2] = system: human monocytes (HMGB1 internalization); experiment: HMGB1 internalization by human monocytes, microscopy; type: cell-based; conditions: AF-594-labeled HMGB1, human monocytes
Protocol: (§1) For HMGB1 or CpG internalization assays, isolated human monocytes were cultured in 8 well-chamber-slides (Nunc, LabTek, Thermo-Fisher) in X-VIVO 15 culture medium. Cells were allowed to adhere for 2 h and then washed with PBS and incubated with AlexaFluor-594 HMGB1 or FITC-CpG with or without DWEYS for 15 min. Nuclei were counterstained using DAPI. Cells were washed three times with cold PBS and then fixed with 4% PFA and mounted using Dako mounting solution (Agilnet Technologies, Santa Clara, CA, USA).
(B) Inhibition curve used for IC50 evaluation as noted in the methods section. (C,D) Human monocytes were incubated with labeled HMGB1 (red) alone (C, top panel) or HMGB1 and DWEYS (C, middle panel) or HMGB1 and control peptide (C, bottom panel) for 20 min. Cells were counterstained with DAPI and imaged using a confocal laser scanning microscope. (D) Indicates adjusted fluorescence intensity for three experiments. (E) Primary human monocytes were incubated with HMGB1 and with or without DWEYS or control peptide for 4 h. lSG expression was evaluated using qPCR.

[3] = system: CpG-induced ISGs, primary human monocytes; experiment: ISG induction by CpG in monocytes (qPCR); type: cell-based; conditions: CpG with or without peptide, 20 min per legend, three independent experiments
[4] = system: CpG:TLR9 binding; experiment: Inhibition of CpG binding to TLR9, AlphaScreen; conditions: constant CpG concentration
Protocol: Binding of TLR9 to biotinylated CpG or the DWEYS peptide was assayed in a buffer consisting of 50 mM Tris-HCl pH 7.4, 100 mM NaCl, 1% ultrapure BSA, 0.01% Tween 20 using an amplified luminescent proximity assay with streptavidin-conjugated donor beads and nickel chelate acceptor beads (AlphaScreen; Perkin Elmer, Boston, MA, USA), as described before ([1]).
Figure 2 DWEYS inhibits the transfer of the interferon signature by SLE serum but is not a TLR9 antagonist. (A) Primary human monocytes were incubated with SLE serum with or without DWEYS or with control peptide for 4 h. lSG expression was evaluated by qPCR. […] (B) Assessment of DWEYS and CpG oligonucleotides binding to TLR9. Labeled TLR9 was incubated with varying concentrations of CpG or DWEYS for 30 min in room temperature. Binding was assessed using an AlphaScreen assay as described in the methods section. (C,D) Inhibition assay. Labeled TLR9 and constant, binding concentration of CpG were incubated with different concentrations of DWEYS or a control peptide at neutral (pH 7.4, C) or acidic (pH 6.25, D) condition. Binding was assessed using an AlphaScreen assay as noted in the methods section. Results are representative of three independent experiments. ^***p < 0.001, ns, not significant.

[5] = system: primary human monocytes / SLE serum-induced ISGs; experiment: ISG induction by SLE serum in healthy donor monocytes (qPCR); type: cell-based; conditions: 4 h, two DWEYS concentrations, control peptide at the higher dose, mean ± SD of three independent experiments
[6] = system: human monocytes (CpG internalization); experiment: FITC-CpG internalization by human monocytes, microscopy; type: cell-based; conditions: 37°C, 15 min (legend 20 min)
Protocol: as §1
Non IC-bound DNA can also be internalized by binding to HMGB1, with the HMGB1-DNA complex binding to RAGE ([1]). […] We incubated monocytes from healthy donors with FITC labeled CpG. […] CpG is internalized chaperoned by HMGB1 binding through RAGE.
Figure 4 DWEYS binds HMGB1 and inhibits its binding to RAGE. (A) Monocytes were incubated with labeled CpG (red) and DWEYS or control peptide for 20 min. Cells were counterstained with DAPI prior to imaging. (B) Depicts adjusted fluorescence intensity for three experiments run. (C) Monocytes from C57BL6 wild type (WT) or RAGE^−/− mice were incubated with labeled CpG for 20 min and counterstained with DAPI prior to imaging. (D) Primary human monocytes were incubated with CpG and with or without DWEYS or a control peptide for 20 min. ISG expression was analyzed by qPCR. […]

[7] = system: HMGB1; experiment: HMGB1 binding, surface plasmon resonance; conditions: SPR Biacore T200, HMGB1 immobilized on CM5 chip, 25°C
Protocol: A Biacore T200 apparatus (GE Healthcare Bio-Sciences, Pittsburgh, PA, USA) was used for real-time binding interaction studies. For HMGB1 and DWEYS peptide binding analyses, HMGB1 protein was immobilized onto a CM5 series chip (GE Healthcare). The HMGB1 protein was diluted to a concentration of 20 μg/mL in 10 mM sodium acetate buffer (pH = 4.5). A 1:1 mixture of N-hydroxysuccinimide and N-ethyl-N-(dimethyaminopropyl) carbodiimide was used to activate two flow-cells of the CM5 chip. […] The sample flow-cell was injected with the diluted HMGB1 at a flow rate of 10 μL/min. The HMGB1 injection was stopped when the surface plasmon resonance reached ~600 RU. For HMGB1 and DWEYS peptide kinetics assay, DWEYS peptide were sequentially injected at a flow rate of 20 μL/min for 120 s at 25°C, the dissociation time was set for 2 min. The concentrations were 16, 31.25, 62.5, 125, 250 μM. The equilibrium dissociation constant (KD) was obtained to evaluate the binding affinity by using the BIAEvaluation 2.0 software (GE Healthcare) assuming a 1:1 binding ratio. At least 3 independent experiments were performed.

[8] = system: HMGB1-induced ISGs, primary human monocytes; experiment: ISG induction by HMGB1 in monocytes (qPCR); type: cell-based; conditions: HMGB1 with DWEYS or control peptide, 4 h, three independent experiments
Protocol: Human cells were obtained with approval of the Institutional Review Board of the Feinstein Institute for Medical Research. PBMCs were isolated from blood of healthy donors (New York Blood Center) by density centrifugation. Monocytes were enriched by negative selection using a human monocyte enrichment kit ([…] Technologies). Purity of monocytes (CD11b^+, CD14^+, LAIR-1^+) was determined to be >90% by flow cytometry (FACS Calibur, BD Biosciences, San Jose, CA, USA). Purified monocytes (2 × 10^6 cells/ml) were cultured in U-bottom 96-well plates in X-VIVO 15 serum free medium (Lonza) with the indicated reagents and harvested at 4–6 h later, or at the indicated times. […] Murine monocyte purity was determined to be >90%.
Total RNA was extracted from cells (1–2 × 10^6 cells per sample) with an RNeasy kit (Qiagen, Germantown, MD, USA) and cDNA was generated using an iScript cDNA synthesis kit (Bio-Rad, Hercules, CA, USA). qRT-PCR was performed on a Light Cycler 480 II (Roche, Indianapolis, IN, USA). […] The relative induction was calculated by 2^−ΔΔCt.
(B) Inhibition curve used for IC50 evaluation as noted in the methods section. […] (D) Indicates adjusted fluorescence intensity for three experiments. (E) Primary human monocytes were incubated with HMGB1 and with or without DWEYS or control peptide for 4 h. lSG expression was evaluated using qPCR.

[9] = molecular target: T1, Recombinant HMGB1 (Calmodulin Binding Protein Epitope, Cbp tagged) (UniProt P09429 1-215); experiment: SPR; inhibition assay, Biacore T200; sRAGE amine-coupled to a CM5 chip (~500 RU); HMGB1 (0.5 μM) with or without DWEYS 50 to 1.6 μM injected at 30 μL/min for 60 s, 25°C; PBS + 0.05 Tween 20; conditions: both partners purified
T1 construct: high-mobility group box-1 protein (HMGB1), recombinant; The reagents also list 'reduced HMGB1'; also called high-mobility group box-1
T1 sequence (looked up): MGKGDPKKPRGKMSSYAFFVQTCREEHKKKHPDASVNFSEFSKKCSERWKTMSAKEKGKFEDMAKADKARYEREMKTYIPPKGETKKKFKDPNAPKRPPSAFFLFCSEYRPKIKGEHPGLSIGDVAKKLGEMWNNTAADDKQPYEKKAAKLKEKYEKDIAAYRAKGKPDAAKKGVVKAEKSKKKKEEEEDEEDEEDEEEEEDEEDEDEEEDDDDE

[10] = molecular target: T1, Recombinant HMGB1 (Calmodulin Binding …); experiment: SPR; Biacore T200; HMGB1 amine-coupled to a CM5 chip (~600 RU); peptide injected at 16-250 μM, 20 μL/min, 120 s, 25°C; 1:1 binding assumed; apparent KD; conditions: both partners purified

biotinylated DWEYS [labeled DWEYS]
internalization of DWEYS, no serum ([1]; biotinylated DWEYS alone): only minimal internalization | internalization of DWEYS, SLE serum with high anti-DNA titer ([1]; biotinylated DWEYS with SLE serum with high anti-DNA antibody titer): significant intracellular internalization of DWEYS was seen | internalization of DWEYS, SLE serum lacking anti-DNA antibodies ([1]; biotinylated DWEYS with SLE serum with low titers of anti-DNA antibodies): did not mediate DWEYS internalization | internalization of DWEYS, healthy donor serum ([1]; biotinylated DWEYS with serum from healthy donors): only minimal internalization

TATAT [control peptide]
HMGB1 internalization (effect of peptide) ([2]; 20 min, confocal microscopy): no inhibition of HMGB1 internalization | CpG induction of ISGs (effect of peptide) [3]: failed to inhibit ISG induction | inhibition of CpG binding to TLR9, acidic pH ([4]; pH 6.25 (simulating activated endosome)): neither DWEYS, nor a control peptide, used at various concentrations, inhibited the binding | inhibition of CpG binding to TLR9, neutral pH ([4]; pH 7.4): neither DWEYS, nor a control peptide, used at various concentrations, inhibited the binding | ISG induction by SLE serum (effect of peptide) [5]: showed an induction of all three ISGs studied | CpG internalization (effect of peptide) [6]: no effect | binding to immobilized HMGB1 [7]: did not bind | ISG level on HMGB1 incubation [8]: increased level of ISGs, in the presence of control peptide

B1: DWEYS peptide (peptide)
peptide: DWEYS
notes: the biotinylated form may have been used there; also called pentapeptide DWEYS; DNA mimetope; source: synthetic peptide (GenScript)
IC50 [9]: 34.7 µM | Kd [10]: 185 µM

B2: high-mobility group box-1 (protein)
chain: MGKGDPKKPRGKMSSYAFFVQTCREEHKKKHPDASVNFSEFSKKCSERWKTMSAKEKGKFEDMAKADKARYEREMKTYIPPKGETKKKFKDPNAPKRPPSAFFLFCSEYRPKIKGEHPGLSIGDVAKKLGEMWNNTAADDKQPYEKKAAKLKEKYEKDIAAYRAKGKPDAAKKGVVKAEKSKKKKEEEEDEEDEEDEEEEEDEEDEDEEEDDDDE
modifications: left off: Calmodulin Binding Protein Epitope (Cbp), end not stated, state not stated
HMGB1 internalization alone [2]: detected in monocytes after 15–30 min in incubation
